Assay results: patent US10428083B2, “Heterocyclylmethyl-thienouracile as antagonists of the adenosine-A2B-receptor” (BAYER PHARMA AKTIENGESELLSCHAFT, priority 2015, dated 2019)

Molecular target: human adenosine A2b receptor (Homo sapiens (Human), UniProt P29275)
Assay: Cellular in vitro reporter gene test for A2b receptor activity (CHO-K1, CRE-luciferase, NECA stimulation)
Type: cell-based
Settings: recombinant CHO-K1 cell line, CRE-luciferase reporter, antagonism of EC50 concentration of NECA; in some cases means of several determinations, rounded to two significant figures; read-out: A2b receptor IC50
How it was run: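 CHO-K1 cells with CRE-driven luciferase; antagonists co-incubated with NECA at its EC50, determined in a pre-experiment on each test day. Luciferase read by luminescence 3 h after NECA addition.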

human adenosine A2b receptor, sequence (P29275 whole entry): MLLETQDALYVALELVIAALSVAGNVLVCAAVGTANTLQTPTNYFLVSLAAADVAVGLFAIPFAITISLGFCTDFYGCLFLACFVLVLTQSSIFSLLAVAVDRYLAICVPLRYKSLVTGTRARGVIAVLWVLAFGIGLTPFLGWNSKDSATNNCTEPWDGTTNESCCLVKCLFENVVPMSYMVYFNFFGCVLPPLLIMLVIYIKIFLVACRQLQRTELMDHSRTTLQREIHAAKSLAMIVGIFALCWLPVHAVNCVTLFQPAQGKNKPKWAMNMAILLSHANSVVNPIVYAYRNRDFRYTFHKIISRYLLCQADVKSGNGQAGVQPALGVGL

| SMILES | IC50 [nM] |
| --- | --- |
| Cc1c(Cn2nc[nH]c2=O)sc2c1c(=O)n(C(C)C)c(=O)n2CC1CCCO1 (single isomer, unassigned) [Example 425, 3-Isopropyl-5-methyl-6-[(5-oxo-4,5-dihydro-1H-1,2,4-triazol-1-yl)methyl]-1-(tetrahydrofuran-2-ylmethyl)thieno[2,3-d]pyrimidine-2,4(1H,3H)-dione] | 42 |
| Cc1c(CN2CCNC2=O)sc2c1c(=O)n(C(C)C)c(=O)n2CC1CCO1 (single isomer, unassigned) [Example 185, 3-Isopropyl-5-methyl-1-(oxetan-2-ylmethyl)-6-[(2-oxoimidazolidin-1-yl)methyl]thieno[2,3-d]pyrimidine-2,4(1H,3H)-dione] | 60 |
| Cc1c(Cn2[nH]ccc2=O)sc2c1c(=O)n(C(C)C)c(=O)n2CC1CCCO1 (single isomer, unassigned) [Example 136, 3-Isopropyl-5-methyl-6-[(5-oxo-2,5-dihydro-1H-pyrazol-1-yl)methyl]-1-(tetrahydrofuran-2-ylmethyl)thieno[2,3-d]pyrimidine-2,4(1H,3H)-dione] | 360 |
| CCn1c(=O)c2c(C)c(CN3CCNC3=NC#N)sc2n(CC2CCO2)c1=O (single isomer, unassigned) [Example 258, [1-{[3-Ethyl-5-methyl-1-(oxetan-2-ylmethyl)-2,4-dioxo-1,2,3,4-tetrahydrothieno[2,3-d]pyrimidin-6-yl]methyl}imidazolidin-2-ylidene]cyanamide] | 33 |
| Cc1c(CN2CCNC2=O)sc2c1c(=O)n(CC(F)F)c(=O)n2CC1CCCO1 (single isomer, unassigned) [Example 220, 3-(2,2-Difluoroethyl)-5-methyl-6-[(2-oxoimidazolidin-1-yl)methyl]-1-(tetrahydrofuran-2-ylmethyl)thieno[2,3-d]pyrimidine-2,4(1H,3H)-dione] | 15 |
| COCCn1c(=O)c2c(C)c(CN3CCNC3=NC(=O)OC)sc2n(CC2CCCO2)c1=O (single isomer, unassigned) [Example 391, Methyl [1-f{[3-(2-methoxyethyl)-5-methyl-2,4-dioxo-1-(tetrahydrofuran-2-ylmethyl)-1,2,3,4-tetrahydrothieno[2,3-d]pyrimidin-6-yl]methyl}imidazolidin-2-ylidene]carbamate] | 34 |
| CCn1c(=O)c2c(C)c(Cn3nc[nH]c3=O)sc2n(CC2CCCO2)c1=O (single isomer, unassigned) [Example 420, 3-Ethyl-5-methyl-6-[(5-oxo-4,5-dihydro-1H-1,2,4-triazol-1-yl)methyl]-1-(tetrahydrofuran-2-ylmethyl)thieno[2,3-d]pyrimidine-2,4(1H,3H)-dione] | 50 |
| CCn1c(=O)c2c(C)c(CN3CCNC(=O)C3=O)sc2n(CC2CCCO2)c1=O (racemic) [Example 475, 6-[(2,3-Dioxopiperazin-1-yl)methyl]-3-ethyl-5-methyl-1-(tetrahydrofuran-2-ylmethyl)thieno[2,3-d]pyrimidine-2,4(1H,3H)-dione] | 36 |
| Cc1c(CN2CCNC2=O)sc2c1c(=O)n(CC(F)(F)F)c(=O)n2CC1CCO1 (single isomer, unassigned) [Example 207, 5-Methyl-1-(oxetan-2-ylmethyl)-6-[(2-oxoimidazolidin-1-yl)methyl]-3-(2,2,2-trifluoroethyl)thieno[2,3-d]pyrimidine-2,4(1H,3H)-dione] | 43 |
| COCCn1c(=O)c2c(C)c(CN3CCNC3=NC(=O)OC)sc2n(CC2CCCO2)c1=O (racemic) [Example 390, Methyl [1-{[3-(2-methoxyethyl)-5-methyl-2,4-dioxo-1-(tetrahydrofuran-2-ylmethyl)-1,2,3,4-tetrahydrothieno[2,3-d]pyrimidin-6-yl]methyl}imidazolidin-2-ylidene]carbamate] | 28 |
| [2H]C([2H])(c1sc2c(c1C)c(=O)n([C@@H](C)C(F)(F)F)c(=O)n2CCOC)N1CCNC1=O [Example 502, 1-(2-Methoxyethyl)-5-methyl-6-[(2-oxoimidazolidin-1-yl)(dideutero)methyl]-3-[(2S)-1,1,1-trifluoropropan-2-yl]thieno[2,3-d]pyrimidine-2,4(1H,3H)-dione] | 18 |
| Cc1c(CN2CCNC(=O)C2=O)sc2c1c(=O)n(C(C)C)c(=O)n2CC1CCO1 (single isomer, unassigned) [Example 399, 6-[(2,3-Dioxopiperazin-1-yl)methyl]-3-isopropyl-5-methyl-1-(oxetan-2-ylmethyl)thieno[2,3-d]pyrimidine-2,4(1H,3H)-dione] | 26 |
| CCn1c(=O)c2c(C)c(CN3CCNC(=O)C3=O)sc2n(CC2CCCO2)c1=O (single isomer, unassigned) [Example 476, 6-[(2,3-Dioxopiperazin-1-yl)methyl]-3-ethyl-5-methyl-1-(tetrahydrofuran-2-ylmethyl)thieno[2,3-d]pyrimidine-2,4(1H,3H)-dione] | 140 |
| CCn1c(=O)c2c(C)c(Cn3cc(C)[nH]c3=O)sc2n(CCC(F)(F)F)c1=O [Example 250, 3-Ethyl-5-methyl-6-[(4-methyl-2-oxo-2,3-dihydro-1H-imidazol-1-yl)methyl]-1-(3,3,3-trifluoropropyl)thieno[2,3-d]pyrimidine-2,4(1H,3H)-dione] | 18 |

These reach a lower IC50. Values come first.

| IC50 [nM] | SMILES |
| --- | --- |
| 14 | CCOCCn1c(=O)n(CC(C)C)c(=O)c2c(C)c(CN3CCNC3=S)sc21 [Example 145, 1-(2-Ethoxyetyl)-3-isobutyl-5-methyl-6-[(2-thioxoimidazolidin-1-yl)methyl]thieno[2,3-d]pyrimidine-2,4(1H,3H)-dione] |
| 14 | COCCn1c(=O)n(CCc2ccccc2)c(=O)c2c(C(F)(F)F)c(CN3CCCS3(=O)=O)sc21 [Example 18, 6-[(1,1-Dioxido-1,2-thiazolidin-2-yl)methyl]-1-(2-methoxyethyl)-3-(2-phenylethyl)-5-(trifluoromethyl)thieno[2,3-d]pyrimidine-2,4(1H,3H)-dione] |
| 12 | Cc1c(CN2CCNC2=NC#N)sc2c1c(=O)n(CC(F)(F)F)c(=O)n2CCC(F)(F)F [Example 358, [1-{[5-Methyl-2,4-dioxo-3-(2,2,2-trifluoroethyl)-1-(3,3,3-trifluoropropyl)-1,2,3,4-tetrahydrothieno[2,3-d]pyrimidin-6-yl]methyl}imidazolidin-2-ylidene]cyanamide] |
| 12 | Cc1c(CN2CCNC2=O)sc2c1c(=O)n(CC(C)C)c(=O)n2CC1CCOC1 (racemic) [Example 90, 3-Isobutyl-5-methyl-6-[(2-oxoimidazolidin-1-yl)methyl]-1-(tetrahydrofuran-3-ylmethyl)thieno[2,3-d]pyrimidine-2,4(1H,3H)-dione (racemate)] |
| 12 | CCn1c(=O)c2c(C(F)F)c(CN3CCNC3=O)sc2n(CCOC)c1=O [Example 101, 5-(Difluoromethyl)-3-ethyl-1-(2-methoxyethyl)-6-[(2-oxoimidazolidin-1-yl)methyl]thieno[2,3-d]pyrimidine-2,4(1H,3H)-dione] |
| 9 | [2H]C([2H])(c1sc2c(c1C)c(=O)n(CC)c(=O)n2CCOC)N1CCNC1=O [Example 415, 3-Ethyl-1-(2-methoxyethyl)-5-methyl-6-[(2-oxoimidazolidin-1-yl)(dideutero)methyl]thieno[2,3-d]pyrimidine-2,4(1H,3H)-dione] |
| 8.5 | COCCn1c(=O)c2c(C)c(Cn3cc[nH]c3=O)sc2n(CCC(F)(F)F)c1=O [Example 344, 3-(2-Methoxyethyl)-5-methyl-6-[(2-oxo-2,3-dihydro-1H-imidazol-1-yl)methyl]-1-(3,3,3-trifluoropropyl)thieno[2,3-d]pyrimidine-2,4(1H,3H)-dione] |
| 6.7 | COC(=O)N=C1NCCN1Cc1sc2c(c1C)c(=O)n(CC(C)OC)c(=O)n2CCC(F)(F)F (racemic) [Example 472, Methyl [1-{[3-(2-methoxypropyl)-5-methyl-2,4-dioxo-1-(3,3,3-trifluoropropyl)-1,2,3,4-tetrahydrothieno[2,3-d]pyrimidin-6-yl]methyl}imidazolidin-2-ylidene]carbamate] |
| 6 | Cc1c(CN2CCNC2=S)sc2c1c(=O)n(CC(C)(C)C)c(=O)n2CCCF [Example 150, 3-(2,2-Dimethylpropyl)-1-(3-fluoropropyl)-5-methyl-6-[(2-thioxoimidazolidin-1-yl)methyl]thieno[2,3-d]pyrimidine-2,4(1H,3H)-dione] |
| 5.9 | Cc1c(CN2CCN(C)C2=S)sc2c1c(=O)n(CC(F)(F)F)c(=O)n2CCC(F)(F)F [Example 306, 5-Methyl-6-[(3-methyl-2-thioxoimidazolidin-1-yl)methyl]-3-(2,2,2-trifluoroethyl)-1-(3,3,3-trifluoropropyl)thieno[2,3-d]pyrimidine-2,4(1H,3H)-dione] |
| 2.7 | CCn1c(=O)c2c(C)c(CN3CCNC3=NC(=O)OC)sc2n(CCOC)c1=O (single isomer, unassigned) [Example 119, Methyl [1-{[3-ethyl-1-(2-methoxyethyl)-5-methyl-2,4-dioxo-1,2,3,4-tetrahydrothieno[2,3-d]pyrimidin-6-yl]methyl}imidazolidin-2-ylidene]carbamate] |
| 2.7 | CCn1c(=O)c2c(C)c(CN3CCCS3(=O)=O)sc2n(CCC(F)(F)F)c1=O [Example 16, 6-[(1,1-Dioxido-1,2-thiazolidin-2-yl)methyl]-3-ethyl-5-methyl-1-(3,3,3-trifluoropropyl)thieno[2,3-d]pyrimidine-2,4(1H,3H)-dione] |
| 1.4 | CCn1c(=O)c2c(C)c(Cn3cc[nH]c3=O)sc2n(CC2CCCO2)c1=O (racemic) [Example 242, 3-Ethyl-5-methyl-6-[(2-oxo-2,3-dihydro-1H-imidazol-1-yl)methyl]-1-(tetrahydrofuran-2-ylmethyl)thieno[2,3-d]pyrimidine-2,4(1H,3H)-dione] |
| 1.3 | COCCn1c(=O)n(CCC=C(F)F)c(=O)c2c(C)c(CN3CCNC3=O)sc21 [Example 322, 3-(4,4-Difluorobut-3-en-1-yl)-1-(2-methoxyethyl)-5-methyl-6-[(2-oxoimidazolidin-1-yl)methyl]thieno[2,3-d]pyrimidine-2,4(1H,3H)-dione] |
